Data from article PMC6269118, “Populene D Analogues: Design, Concise Synthesis and Antiproliferative Activity” (Molecules, 2012).
Converted amounts (≈) assume the structure as drawn. Read-outs that look alike come from different tables or passages of the source.

Legend:
[1] = test system: nine human tumor cell lines; assay: Average antiproliferative activity over the tumor cell line panel (NCI criteria); assay type: cell-based; settings: for GI50: Homo sapiens, 48 h; for Cytostatic activity classified in words by NCI criteria on mean logGI50: weak 1.1-1.5, moderate 0-1.1, potent <0, inactive >1.5
Procedure: (§1) The in vitro antiproliferative activity of populene analogues 2a–e and 3a–e was investigated toward nine human tumor cell lines [CNS (U251), breast (MCF-7), ovarian (NCI-ADR/RES, OVCAR-03), renal (786-0), non-small cell lung (NCI-H460), prostate (PC-3), colon (HT-29) and leukemia (k-562)] and one human normal cell line (HaCat, human keratinocytes). The populene D analogues were tested at concentrations between 0.25 and 250 µg/mL and doxorubicin (DOX 0.025–25 µg/mL) was used as positive control. […] To analyze the GI50 parameter, mean log GI50 was calculated by conversion of the GI50 values for each tumor cell line tested (not including the normal cell line HaCat) against a test compound and then these values were averaged.
(§2) Cells in 96-well plates (100 μL cells/well) were exposed to various concentrations of compounds 2a–d and 3a–d diluted in DMSO (0.25, 2.5, 25 and 250 μg/mL) at 37 °C, 5% of CO2 for 48 h. […] Afterwards cells were fixed with 50% trichloroacetic acid and cell proliferation determined by spectrophotometric quantification (540 nm) of cellular protein content using sulforhodamine B assay[20]. Doxorubicin (0.025–25 mg/mL) was used as positive control. Three measurements were obtained at the beginning of incubation (time zero, T0) and 48 h post-incubation for compound-free (C) and tested (T) cells. Cell proliferation was determined according to the equation 100 × [(T − T0)/C − T0], for T0 < T ≤ C, and 100 × [(T − T0)/T0], for T ≤ T0 and a concentration-response curve for each cell line was plotted and, from these curves, GI50 (concentration causing 50% growth inhibition) and TGI (concentration that promotes total growth inhibition) were determined by means of non-linear regression analysis using software ORIGIN 8.0 (OriginLab Corporation) [20, 21] The average activity (mean of log GI50) of each compound tested was also determined using MS Excel software.

[2] = test system: NCI-ADR/RES (ovarian expressing phenotype multiple drugs resistance) cells; assay: Antiproliferative sulforhodamine B assay, NCI-ADR/RES; assay type: cell-based; settings: Homo sapiens, NCI-ADR/RES drug resistant ovary, 48 h treatment, SRB; for IC100: read-out: Total growth inhibition (TGI)
Procedure: as §1
(§3) Stock cultures were grown in 5 mL of RPMI 1640 (GIBCO BRL, Life Technologies) supplemented with 5% of fetal bovine serum. Penicillin:streptomycin (1,000 μg mL^−1:1,000 UI mL^‑1, 1 mL L^−1) was added to the experimental cultures.
(§4) Afterwards cells were fixed with 50% trichloroacetic acid and cell proliferation determined by spectrophotometric quantification (540 nm) of cellular protein content using sulforhodamine B assay[20]. Doxorubicin (0.025–25 mg/mL) was used as positive control. Three measurements were obtained at the beginning of incubation (time zero, T0) and 48 h post-incubation for compound-free (C) and tested (T) cells. Cell proliferation was determined according to the equation 100 × [(T − T0)/C − T0], for T0 < T ≤ C, and 100 × [(T − T0)/T0], for T ≤ T0 and a concentration-response curve for each cell line was plotted and, from these curves, GI50 (concentration causing 50% growth inhibition) and TGI (concentration that promotes total growth inhibition) were determined by means of non-linear regression analysis using software ORIGIN 8.0 (OriginLab Corporation) [20, 21] The average activity (mean of log GI50) of each compound tested was also determined using MS Excel software.

HT-29 (colon) cells = assay: Antiproliferative sulforhodamine B assay, HT-29; assay type: cell-based; settings: Homo sapiens, 48 h treatment, SRB; for IC100: read-out: Total growth inhibition (TGI)
Procedure: (§5) The populene D analogues were tested at concentrations between 0.25 and 250 µg/mL and doxorubicin (DOX 0.025–25 µg/mL) was used as positive control. […] To analyze the GI50 parameter, mean log GI50 was calculated by conversion of the GI50 values for each tumor cell line tested (not including the normal cell line HaCat) against a test compound and then these values were averaged.
as §3, §4

U251 (glioma) cells = assay: Antiproliferative sulforhodamine B assay, U251; assay type: cell-based; settings: Homo sapiens, U-251, 48 h treatment, SRB; for IC100: read-out: Total growth inhibition (TGI)
Procedure: as §1, §3, §4

786-0 (renal) cells = assay: Antiproliferative sulforhodamine B assay, 786-0; assay type: cell-based; settings: Homo sapiens, 786-0 kidney, 48 h treatment, SRB; for IC100: read-out: Total growth inhibition (TGI)
Procedure: as §1, §3, §4

MCF-7 (breast) cells = assay: Antiproliferative sulforhodamine B assay, MCF-7; assay type: cell-based; settings: Homo sapiens, MCF7, MCF-7 mammary, 48 h treatment, SRB; for IC100: read-out: Total growth inhibition (TGI)
Procedure: as §1, §3, §4

PC-3 (prostate) cells = assay: Antiproliferative sulforhodamine B assay, PC-3; assay type: cell-based; settings: Homo sapiens, Prostate cell, 48 h treatment, SRB; for IC100: read-out: Total growth inhibition (TGI)
Procedure: as §5, §3, §4

K-562 (leukemia) cells = assay: Antiproliferative sulforhodamine B assay, K-562; assay type: cell-based; settings: Homo sapiens, K562, 48 h treatment, SRB; for IC100: read-out: Total growth inhibition (TGI)
Procedure: as §1, §2

OVCAR-3 (ovarian) cells = assay: Antiproliferative sulforhodamine B assay, OVCAR-3; assay type: cell-based; settings: Homo sapiens, OVCAR-3 ovary, 48 h treatment, SRB; for IC100: read-out: Total growth inhibition (TGI)
Procedure: as §5, §3, §4

[3] = test system: HaCat (immortalized human keratinocytes); assay: Antiproliferative sulforhodamine B assay, HaCat normal cell line; assay type: cell-based; settings: 48 h treatment, SRB
Procedure: as §1, §3, §4

[4] = as above; assay type: cell-based, human; settings: human; HaCat normal immortalized keratinocytes, 48 h treatment, SRB
Procedure: as §1, §3, §4

[5] = test system: NCI-H460 (lung, non-small cells) cells; assay: Antiproliferative sulforhodamine B assay, NCI-H460; settings: for GI50: Homo sapiens, NCI-H460, 48 h; for Total growth inhibition (TGI): NCI-H460 lung, 48 h treatment, SRB
Procedure: as §5, §3, §4

[6] = average of logGI50 (GI50 in μg/mL) over tumor cell lines tested, not including HaCat, read-out: Mean logGI50 (converted)
[7] = class symbol by NCI's criteria on mean logGI50, read-out: Mean logGI50 activity class (NCI's criteria)

| Compound | GI50 [1, 6] [µg/mL] | GI50 [1, 7] [µg/mL] | GI50 [2] [µg/mL] | IC100 [2] [µg/mL] | GI50 (HT-29 (colon) cells) [µg/mL] | IC100 (HT-29 (colon) cells) [µg/mL] | GI50 (U251 (glioma) cells) [µg/mL] | IC100 (U251 (glioma) cells) [µg/mL] | GI50 (786-0 (renal) cells) [µg/mL] | IC100 (786-0 (renal) cells) [µg/mL] | GI50 (MCF-7 (breast) cells) [µg/mL] | IC100 (MCF-7 (breast) cells) [µg/mL] | GI50 (PC-3 (prostate) cells) [µg/mL] | IC100 (PC-3 (prostate) cells) [µg/mL] | GI50 (K-562 (leukemia) cells) [µg/mL] | IC100 (K-562 (leukemia) cells) [µg/mL] | GI50 (OVCAR-3 (ovarian) cells) [µg/mL] | IC100 (OVCAR-3 (ovarian) cells) [µg/mL] | Total growth inhibition (TGI) [3] [µg/mL] | GI50 at 48 h [4] [µg/mL] | further results |
| --- | --- | --- | --- | --- | --- | --- | --- | --- | --- | --- | --- | --- | --- | --- | --- | --- | --- | --- | --- | --- | --- |
| COc1cccc2c1CCC1=C2C(C)COC1(C)C (centres unmarked) [2a, 4,5,6-Tetrahydro-7-methoxy-1,4,4-trimethyl-1H-benzo[f]isochromene] | 14.8 (≈ 57.2 µM) | 12.6 to 31.6 (≈ 48.7 to 122 µM) | 25 (≈ 96.8 µM) | 83.5 | 25 (≈ 96.8 µM) | 39.1 | 25 (≈ 96.8 µM) | 52 | 25 (≈ 96.8 µM) | 50.6 | 25 (≈ 96.8 µM) | 51.3 | 25 (≈ 96.8 µM) | 64.6 | 3.1 (≈ 12 µM) | > 250 | 25 (≈ 96.8 µM) | 52.3 | 66.9 | 25 (≈ 96.8 µM) | melting point: 65 to 67 °C |
| COc1ccc2c(c1)CCC1=C2C(C)COC1(C)C (centres unmarked) [2b, 2,4,5,6-Tetrahydro-8-methoxy-1,4,4-trimethyl-1H-benzo[f]isochromene] | 15.1 (≈ 58.6 µM) | 12.6 to 31.6 (≈ 48.7 to 122 µM) | 26.8 (≈ 104 µM) | 104 | 6.6 (≈ 25.5 µM) | 33 | 24.6 (≈ 95.2 µM) | 53.5 | 25.5 (≈ 98.7 µM) | 44 | 23.2 (≈ 89.8 µM) | 46.9 | 27 (≈ 105 µM) | 41.4 | 9.6 (≈ 37.2 µM) | > 250 | 24.5 (≈ 94.8 µM) | 56.2 | 54.4 | 26.1 (≈ 101 µM) | melting point: 89.5 to 91.3 °C |
| COc1ccc2c(c1)C1=C(CC2)C(C)(C)OCC1C (centres unmarked) [2c, 2,4,5,6-Tetrahydro-9-methoxy-1,4,4-trimethyl-1H-benzo[f]isochromene] | 16.2 (≈ 62.8 µM) | 12.6 to 31.6 (≈ 48.7 to 122 µM) | 25 (≈ 96.8 µM) | 66.3 | 25 (≈ 96.8 µM) | 41.8 | 25 (≈ 96.8 µM) | 40 | 25 (≈ 96.8 µM) | 36.1 | 25 (≈ 96.8 µM) | 45.3 | 25 (≈ 96.8 µM) | 69.2 | 25 (≈ 96.8 µM) | 128 | 25 (≈ 96.8 µM) | 67 | 32.0 | 25 (≈ 96.8 µM) |  |
| COc1cc2c(cc1OC)C1=C(CC2)C(C)(C)OCC1C (centres unmarked) [2d, 2,4,5,6-Tetrahydro-8,9-dimethoxy-1,4,4-trimethyl-1H-benzo[f]isochromene] | > 50.1 | > 31.6 | 101 (≈ 349 µM) | > 250 | 23.1 (≈ 80.1 µM) | > 250 | > 250 | > 250 | 45.8 (≈ 159 µM) | > 250 | 38.8 (≈ 135 µM) | > 250 | 71.4 (≈ 248 µM) | > 250 | 84.6 (≈ 293 µM) | > 250 | 193 (≈ 671 µM) | > 250 | >250 | > 250 | Cytostatic activity classified in words by NCI criteria on mean logGI50 [1]: inactive; melting point: 115 to 117 °C |
| CC1COC(C)(C)C2=C1c1cccc(O)c1CC2 (centres unmarked) [3a, 1,4,4-Trimethyl-1,4,5,6-tetrahydro-2H-benzo[f]isochromen-7-ol] | > 209 | > 31.6 | > 250 | > 250 | > 250 | > 250 | > 250 | > 250 | 37.3 (≈ 153 µM) | > 250 | > 250 | > 250 | > 250 | > 250 | > 250 | > 250 | > 250 | > 250 | >250 | > 250 | Cytostatic activity classified in words by NCI criteria on mean logGI50 [1]: inactive; melting point: 139.2 to 140.3 °C; GI50 [5]: > 250 µg/mL; Total growth inhibition (TGI) [5]: >250 µg/mL |
| CC1COC(C)(C)C2=C1c1ccc(O)cc1CC2 (centres unmarked) [3b, 1,4,4-Trimethyl-1,4,5,6-tetrahydro-2H-benzo[f]isochromen-8-ol] | > 100 | > 31.6 | > 250 | > 250 | 78.4 (≈ 321 µM) | > 250 | 46.3 (≈ 189 µM) | > 250 | 36.8 (≈ 151 µM) | > 250 | 108 (≈ 441 µM) | > 250 | > 250 | > 250 | 41.2 (≈ 169 µM) | > 250 | > 250 | > 250 | >250 | > 250 | Cytostatic activity classified in words by NCI criteria on mean logGI50 [1]: inactive; melting point: 199 to 201 °C; GI50 [5]: 41.4 µg/mL (≈ 169 µM); Total growth inhibition (TGI) [5]: >250 µg/mL |
| CC1COC(C)(C)C2=C1c1cc(O)ccc1CC2 (centres unmarked) [3c, 1,4,4-Trimethyl-1,4,5,6-tetrahydro-2H-benzo[f]isochromen-9-ol] | 14.1 (≈ 57.8 µM) | 12.6 to 31.6 (≈ 51.5 to 129 µM) | 25 (≈ 102 µM) | 200 | 22.9 (≈ 93.7 µM) | 53.3 | 27.8 (≈ 114 µM) | 67.9 | 24.6 (≈ 101 µM) | 43 | 24.7 (≈ 101 µM) | 45 | 24.5 (≈ 100 µM) | 51.8 | 8.7 (≈ 35.6 µM) | 39.2 | 1.8 (≈ 7.37 µM) | 31.5 | >250 | 3.6 (≈ 14.7 µM) | Cytostatic activity classified in words by NCI criteria on mean logGI50 [1]: weak; melting point: 160 to 162 °C; GI50 [5]: 24.2 µg/mL (≈ 99 µM); Total growth inhibition (TGI) [5]: 45.9 µg/mL |
| COc1cc2c(cc1O)C1=C(CC2)C(C)(C)OCC1C (centres unmarked) [3d, 8-Methoxy-1,4,4-trimethyl-1,4,5,6-tetrahydro-2H-benzo[f]isochromen-9-ol] | 14.5 (≈ 52.7 µM) | 12.6 to 31.6 (≈ 45.9 to 115 µM) | 5.2 (≈ 19 µM) | 37.6 | 6 (≈ 21.9 µM) | 32.3 | 23.1 (≈ 84.2 µM) | 45.9 | 24.1 (≈ 87.8 µM) | 47.8 | 24.6 (≈ 89.7 µM) | 58.2 |  |  |  |  | 24.3 (≈ 88.6 µM) | 69.9 | 160.7 | 4.2 (≈ 15.3 µM) | Cytostatic activity classified in words by NCI criteria on mean logGI50 [1]: weak; melting point: 141 to 143 °C; GI50 [5]: 45.1 µg/mL (≈ 164 µM); Total growth inhibition (TGI) [5]: >250 µg/mL |
| CC1COC(C)(C)C2=C1c1cc(O)c(O)cc1CC2 (centres unmarked) [3e, 1,4,4-Trimethyl-1,4,5,6-tetrahydro-2H-benzo[f]isochromene-8,9-diol] | 8.13 (≈ 31.2 µM) | 1 to 12.6 (≈ 3.84 to 48.4 µM) | 5.7 (≈ 21.9 µM) | > 250 | 19.5 (≈ 74.9 µM) | 39 | 19.6 (≈ 75.3 µM) | 28.4 | 5.6 (≈ 21.5 µM) | 19.4 | 5.5 (≈ 21.1 µM) | 41.6 |  |  |  |  | 3.9 (≈ 15 µM) | 34.4 | >250 | 4.2 (≈ 16.1 µM) | Cytostatic activity classified in words by NCI criteria on mean logGI50 [1]: moderate; melting point: 122 to 123 °C; GI50 [5]: 17.4 µg/mL (≈ 66.8 µM); Total growth inhibition (TGI) [5]: >250 µg/mL |
| COc1cccc2c1C(=O)c1c(O)c3c(c(O)c1C2=O)C[C@@](O)(C(=O)CO)C[C@@H]3O[C@H]1C[C@H](N)[C@H](O)[C@H](C)O1 [Doxorubicine, doxorubicin, reference compound] | 0.166 (≈ 0.305 µM) | < 1 | 1.3 (≈ 2.39 µM) | 25 | 0.22 (≈ 0.405 µM) | 25 | 0.062 (≈ 0.114 µM) | 1.1 | 0.04 (≈ 0.0736 µM) | 0.62 | 0.21 (≈ 0.386 µM) | 8.8 | 0.27 (≈ 0.497 µM) | 4.4 | 0.4 (≈ 0.736 µM) | 25 | 0.26 (≈ 0.478 µM) | 3.9 | 0.67 | 0.23 (≈ 0.423 µM) | GI50 [5]: < 0.025 µg/mL; Total growth inhibition (TGI) [5]: 0.025 µg/mL |
